Results on eight compounds are retold here after article PMC12757481, “The dihydropyridine LA1011 modulates multiple Hsp90—co-chaperone interactions relevant to Alzheimer’s disease” (Cell Stress & Chaperones, 2025).

One data set has as its target T1, Hsp90-LA1011 (Saccharomyces cerevisiae, UniProt P02829).
T1 construct: made in house
Briefly: ITC, co-chaperone binding to Hsp90-LA1011 complex. More on the design: species or system yeast. For orientation: In ITC the heat of successive injections is recorded.

For data set [1], the target named is T2, Hsp90 (Saccharomyces cerevisiae, UniProt P02829).
T2 construct: made in house
Briefly: ITC, co-chaperone binding to Hsp90. More on the design: species or system yeast.

In data set [2] the target is T2, Hsp90. The data set is described as follows: Lactate-dehydrogenase and pyruvate-kinase-linked Hsp90 ATPase assay. Type of data set: biochemical, yeast. Conditions: for effect of LA1011 on the co-chaperone directed regulation of Hsp90 ATPase activity: 2 μM Hsp90, 240 μM LA1011, co-chaperone 0.25 to 30 μM, normalized data compared with control lacking LA1011; for effect on Hsp90 ATPase activity: 2 μM Hsp90. Here is the method:
ATPase assays using 2 μM Hsp90 were conducted as previously described using the lactate-dehydrogenase and pyruvate-kinase-linked assay.[12] Briefly, 240 μM of LA1011 was used in assays as required. Co-chaperones were added to Hsp90 and Hsp90-LA1011 complex at a variety of concentrations ranging from 0.25 to 30 μM. Assays utilizing LA1011 were normalized by recalculating the activity for all data points so that the data points were converted to a percentage of the activity relative to the first data point, which lacked any addition of co-chaperone. The first data point was therefore 100% max Hsp90 activity. All assays were conducted at least in triplicate.
To assess the effect of LA1011 on the mechanistic action of co-chaperones, we used the lactate-dehydrogenase and pyruvate-kinase-linked Hsp90 ATPase assay. We first assessed the effect of each co-chaperone on Hsp90 ATPase activity and then compared its effect on a Hsp90-LA1011 complex.

Another data set addresses T3, Hsp90-LA1011-PNP (Saccharomyces cerevisiae, UniProt P02829).
T3 construct: made in house
Briefly: ITC, co-chaperone binding to Hsp90-AMPPNP-LA1011 complex. As to conditions: 5 mM AMPPNP, 2 mM LA1011, for Aha1 the Hsp90-LA1011-PNP was the injectant. Details: species or system yeast.

For another data set, the target named is T4, Hsp90-PNP (Saccharomyces cerevisiae, UniProt P02829).
T4 construct: made in house
The data set is described as follows: ITC, co-chaperone binding to Hsp90-AMPPNP. More on the design: species or system yeast. As to conditions: 5 mM AMPPNP, no LA1011, for Aha1 the Hsp90-PNP was the injectant.

Another data set addresses T5, Hsp90-CHIP (Saccharomyces cerevisiae, UniProt P02829).
T5 construct: made in house
The data set is described as follows: ITC, LA1011 binding to Hsp90-mouse CHIP complex. Details: species or system yeast. As to conditions: 20 μM Hsp90, 60 μM CHIP.

For another data set, the target named is T6, Hsp90-CDC37 (Saccharomyces cerevisiae, UniProt P02829).
T6 construct: made in house
Briefly: ITC, LA1011 binding to Hsp90-CDC37 complex. Details: species or system yeast.

The next data set addresses T7, Hsp90-AMPPNP (Saccharomyces cerevisiae, UniProt P02829).
T7 construct: made in house
The data set is described as follows: ITC, LA1011 binding to Hsp90-AMPPNP. Details: species or system yeast. Conditions: 30 μM Hsp90, 5 mM AMPPNP.

In the next data set the test system is APPxPS1 AD mouse model. Details: method as in PMID 27163800. Conditions: APPxPS1 mice, versus untreated mice; cited from earlier work.
The target in the next data set is Hsp90-HOP (Saccharomyces cerevisiae, UniProt P02829). As to conditions: ITC, 20 μM Hsp90, 40 μM HOP.
The next data set deals with T8, Hsp90-Sgt1 (Saccharomyces cerevisiae, UniProt P02829).
T8 construct: made in house
The data set is described as follows: ITC, LA1011 binding to Hsp90-Sgt1 complex. More on the design: species or system yeast. Conditions: 30 μM Hsp90, 60 μM Sgt1, 100 mM NaCl, 2:1 fit.

In the next data set the target is T9, Hsp90-FKBP52 (Saccharomyces cerevisiae, UniProt P02829).
T9 construct: made in house
The data set is described as follows: ITC, LA1011 binding to Hsp90-FKBP52 complex. As to conditions: 30 μM Hsp90, 60 μM FKBP52, 2:1 fit. Details: species or system yeast.

A further data set addresses T10, Hsp90-FKBP51 (Saccharomyces cerevisiae, UniProt P02829).
T10 construct: made in house
Briefly: ITC, LA1011 binding to Hsp90-FKBP51 complex. Details: species or system yeast. As to conditions: 30 μM Hsp90, 60 μM FKBP51, 2:1 fit.

In data set [3] the target is Hsp90. More on the design: method as in PMID 29930942. As to conditions: previously measured; cited from earlier work.
The next data set addresses T11, Hsp90-Aha1 (Saccharomyces cerevisiae, UniProt P02829).
T11 construct: made in house
Briefly: ITC, LA1011 binding to nucleotide-free Hsp90-yeast Aha1 complex. Conditions: 20 μM Hsp90, 40 μM yAha1, nucleotide-free.

Data set [4] addresses T2, Hsp90. Briefly: ITC, LA1011 binding to nucleotide-free Hsp90. Details: species or system yeast. As to conditions: ITC 30 °C, 2 mM LA1011 injected into 30 μM Hsp90.
A further data set concerns the target T12, Hsp90-p23-PNP (Saccharomyces cerevisiae, UniProt P02829).
T12 construct: made in house
Briefly: ITC, LA1011 binding to AMPPNP-Hsp90-p23 complex. Details: species or system yeast. As to conditions: 30 μM Hsp90, 200 μM p23, 5 mM Mg-PNP.

Where [5] appears, read: ITC 30 °C, Hsp90 in complex with 2 mM LA1011, one-site fit, read-out: Kd.
Where [6] appears, read: ITC 30 °C, co-chaperone and Hsp90 without LA1011, one-site fit, read-out: Kd.

Read-outs that look alike come from different tables or passages of the source.

T2 sequence (P02829 whole entry): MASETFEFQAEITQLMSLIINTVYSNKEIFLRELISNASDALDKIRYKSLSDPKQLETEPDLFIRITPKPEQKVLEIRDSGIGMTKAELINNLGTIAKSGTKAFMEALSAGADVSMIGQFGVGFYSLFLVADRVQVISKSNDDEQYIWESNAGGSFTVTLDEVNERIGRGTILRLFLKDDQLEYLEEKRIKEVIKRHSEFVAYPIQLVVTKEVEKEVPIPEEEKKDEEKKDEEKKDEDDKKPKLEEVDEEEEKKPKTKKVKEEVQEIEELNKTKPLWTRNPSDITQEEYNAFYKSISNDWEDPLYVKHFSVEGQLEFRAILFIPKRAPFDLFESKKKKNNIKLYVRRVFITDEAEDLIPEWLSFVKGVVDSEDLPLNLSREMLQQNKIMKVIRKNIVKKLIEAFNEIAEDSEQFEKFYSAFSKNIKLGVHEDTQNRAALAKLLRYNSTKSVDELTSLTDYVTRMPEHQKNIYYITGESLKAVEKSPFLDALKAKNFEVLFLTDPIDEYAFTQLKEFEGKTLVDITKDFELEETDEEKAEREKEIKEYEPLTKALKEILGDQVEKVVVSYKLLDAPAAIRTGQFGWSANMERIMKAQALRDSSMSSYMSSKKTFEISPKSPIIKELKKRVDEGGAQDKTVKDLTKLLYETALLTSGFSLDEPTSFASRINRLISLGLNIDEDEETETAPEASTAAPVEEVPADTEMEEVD
T1 sequence (P02829 whole entry): as above
T11 sequence (P02829 whole entry): as above
T11 sequence (Q12449 whole entry partner): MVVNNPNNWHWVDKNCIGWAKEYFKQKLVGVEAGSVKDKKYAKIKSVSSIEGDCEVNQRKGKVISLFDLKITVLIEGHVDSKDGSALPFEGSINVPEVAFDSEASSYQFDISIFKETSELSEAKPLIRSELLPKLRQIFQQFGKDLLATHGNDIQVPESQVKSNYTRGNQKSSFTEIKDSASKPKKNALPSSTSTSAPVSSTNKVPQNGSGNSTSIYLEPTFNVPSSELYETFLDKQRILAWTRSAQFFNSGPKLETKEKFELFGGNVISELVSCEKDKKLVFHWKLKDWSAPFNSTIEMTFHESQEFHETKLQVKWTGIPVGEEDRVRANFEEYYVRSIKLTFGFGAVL
T3 sequence (P02829 whole entry): as the sequence (P02829 whole entry) above
T6 sequence (P02829 whole entry): as above
T6 sequence (Q16543 whole entry partner): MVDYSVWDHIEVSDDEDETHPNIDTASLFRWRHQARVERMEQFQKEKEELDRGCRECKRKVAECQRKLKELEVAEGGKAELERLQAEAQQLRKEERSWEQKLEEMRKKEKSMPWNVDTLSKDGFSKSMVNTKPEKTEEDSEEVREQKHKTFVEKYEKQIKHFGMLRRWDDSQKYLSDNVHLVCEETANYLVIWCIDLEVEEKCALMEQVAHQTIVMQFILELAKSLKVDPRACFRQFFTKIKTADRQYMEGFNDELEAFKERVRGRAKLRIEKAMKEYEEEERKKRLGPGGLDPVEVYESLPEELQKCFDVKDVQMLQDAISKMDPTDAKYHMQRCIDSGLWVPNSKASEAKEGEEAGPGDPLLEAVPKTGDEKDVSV
T7 sequence (P02829 whole entry): as the sequence (P02829 whole entry) above

On to “Hch1: Hsp90 co-chaperone homologous to the N-terminal domain of Aha1”, for which the Kd with Hsp90-LA1011 (setting [5]) was determined as 11.6 µM; with Hsp90 [1] (setting [6]), 6.9 µM.
With Sti1: the yeast homolog of human HOP, the “effect of LA1011 on the co-chaperone directed regulation of Hsp90 ATPase activity” value (shortened to “effect of LA1011”) in the data set with Hsp90 [2] is “unaffected by the presence of LA1011”.
As for “Aha1: yeast Aha1, late-cycle Hsp90 co-chaperone and activator of Hsp90 ATPase activity”, the “effect on Hsp90 ATPase activity” value in the data set with Hsp90 [2] is “activators of Hsp90 ATPase activity”. The “effect of LA1011” value with Hsp90 [2] is listed as “significantly less Aha1 is required to fully activate Hsp90”. Moreover, the equilibrium dissociation constant (Kd) with Hsp90-LA1011-PNP was determined as 1.8 µM; with Hsp90-LA1011 (setting [5]), 3.3 ± 0.4 µM; with Hsp90 [1] (setting [6]), 2.4 ± 0.2 µM; in the data set with Hsp90-PNP, 1.2 µM.
As for “CDC37: Hsp90 co-chaperone of early complex assembly”, the “effect of LA1011” value in the data set with Hsp90 [2] is reported as “unaffected by the presence of LA1011”. Besides, the Kd with Hsp90-LA1011 (setting [5]) turned out to be 1.3 µM; with Hsp90 [1] (setting [6]), 1.59 µM.
On to `COC(=O)C1=C(CCN(C)C)N(C)C(CCN(C)C)=C(C(=O)OC)C1c1ccc(C(F)(F)F)cc1.Cl.Cl` [LA1011, dimethyl 4-(4-Trifluoro-methyl-phenyl)-2,6-bis(2-dimethylamino-ethyl)-1-methyl-1-4 dihydropyridine-3-5-dicarboxylate dihydrochloride], for which the equilibrium dissociation constant (Kd) turned out to be 56.2 ± 26.2 µM at Hsp90-CHIP (1:1 fit, read-out: Kd (1:1)); 69 ± 2 µM on Hsp90-CHIP (2:1 fit, read-out: Kd (2:1)); 4.2 ± 0.8 µM on Hsp90-CDC37 (20 μM Hsp90, 40 μM CDC37, 1:1 fit, read-out: Kd (1:1)); 9.5 ± 2.5 µM on Hsp90-CDC37 (20 μM Hsp90, 40 μM CDC37, 2:1 fit, read-out: Kd (2:1)); 58.8 ± 24.2 µM on Hsp90-AMPPNP (1:1 fit, read-out: Kd (1:1)); 73 ± 3.1 µM at Hsp90-AMPPNP (2:1 fit, read-out: Kd (2:1)). Besides, the Kd was 8.8 ± 1.3 µM on Hsp90-HOP (read-out: Kd (1:1), 1:1 fit); 8.8 ± 1.3 µM at Hsp90-HOP (read-out: Kd (2:1), 2:1 fit); 8.2 ± 1 µM at Hsp90-Sgt1; 56.2 ± 5.8 µM on Hsp90-FKBP52; 79.4 ± 33.5 µM on Hsp90-FKBP51; 13.5 µM on Hsp90 [3]. Further, the equilibrium dissociation constant (Kd) at Hsp90-Aha1 (1:1 fit, read-out: Kd (1:1)) amounted to 118 ± 8 µM; at Hsp90-Aha1 (2:1 fit, read-out: Kd (2:1)), 53.2 ± 5.5 µM; at Hsp90 [4] (1:1 stoichiometric fit, read-out: Kd (1:1)), 19.8 ± 2.2 µM; on Hsp90 [4] (2:1 (Hsp90:LA1011) stoichiometric fit, read-out: Kd (2:1)), 28.9 ± 1.7 µM; at Hsp90-p23-PNP (1:1 fit, read-out: Kd (1:1)) it was 58.8 ± 3.5 µM; on Hsp90-p23-PNP (2:1 fit, read-out: Kd (2:1)), 73 ± 4.5 µM. In addition, the “amyloid-beta (Aβ) plaques” value in the data set on APPxPS1 AD mouse model is reported as “decreases”. In the data set on APPxPS1 AD mouse model, the dendritic spine density entry is “increase in the dendritic spine density”. In the data set on APPxPS1 AD mouse model, the heat-shock-response entry is “co-induction of the heat-shock-response”. Further, the neurofibrillary tangles result with APPxPS1 AD mouse model is reported as “decreases in neurofibrillary tangles”. In addition, the neuron number result in the data set with APPxPS1 AD mouse model is given as “increase in neuron number”. For the same compound, the “effect on Hsp90 ATPase activity” value on Hsp90 [2] is “activators of Hsp90 ATPase activity”.
Consider “PP5: full-length PP5, phosphatase co-chaperone of Hsp90”, for which the Kd with Hsp90-LA1011 (ITC, Hsp90 with 2 mM LA1011, two-site fit, value listed first in Table 2 and figures, read-out: Kd (two-site fit, first value listed)) stood at 9.6 µM; with Hsp90-LA1011 (ITC, Hsp90 with 2 mM LA1011, two-site fit, value listed second in Table 2 and figures, read-out: Kd (two-site fit, second value listed)) it was 9.2 µM; with Hsp90 [1] (ITC, Hsp90 without LA1011, two-site fit, value listed first in Table 2 and figures, read-out: Kd (two-site fit, first value listed)), 0.64 µM; in the data set with Hsp90 [1] (ITC, Hsp90 without LA1011, two-site fit, value listed second in Table 2 and figures, read-out: Kd (two-site fit, second value listed)) it was 0.16 µM.
For “p23: Hsp90 co-chaperone that promotes the closed conformation of Hsp90”, the “effect of LA1011” value with Hsp90 [2] is listed as “unaffected by the presence of LA1011”. The Kd with Hsp90-LA1011-PNP came to 8.9 µM; in the data set with Hsp90-PNP, 4.2 µM.
For the compound “HOP: Hsp90 co-chaperone found in early complexes of the chaperone cycle”, the figures for the dissociation constant Kd with Hsp90-LA1011 (setting [5]) and in the data set with Hsp90 [1] (setting [6]) were 0.3 µM and 0.43 µM, respectively.

A word on the Kd: it is the equilibrium constant for the complex coming apart.
